Legend:
Gmk = Gmk (Bacillus anthracis, UniProt Q81WG7); type: binding
Hpt1 = Hpt1 (Bacillus anthracis, UniProt A0A6L7HDS1); conditions: labelled compound ([5′-α-32P]); 10 mM Tris pH 7.5, 100 mM NaCl, 5 mM MgCl2, room temperature
Rel (RelA) = target: T1, Rel (RelA) (Bacillus subtilis, UniProt O54408); experiment: […] TLC hydrolysis time course; type: biochemical; conditions: 200 nM enzyme, 100 μM substrate, 25 mM Tris-HCl pH 7.5, 1 mM MnCl2, 37 °C
T1 construct: purified

Xpt = Xpt (Bacillus anthracis, UniProt Q81SQ5); conditions: labelled compound ([5′-α-32P]); 10 mM Tris pH 7.5, 100 mM NaCl, 5 mM MgCl2, room temperature
Xpt, sequence (Q81SQ5 whole entry, looked up): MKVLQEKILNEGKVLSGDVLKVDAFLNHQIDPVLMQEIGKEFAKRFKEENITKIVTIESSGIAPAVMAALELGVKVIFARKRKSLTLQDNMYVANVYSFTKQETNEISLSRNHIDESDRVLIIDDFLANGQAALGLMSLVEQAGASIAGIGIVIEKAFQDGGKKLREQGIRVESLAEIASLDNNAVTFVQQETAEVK

Obg = Obg (Bacillus anthracis, UniProt Q81LF0); experiment: biochemical
Obg, sequence (Q81LF0 whole entry, looked up): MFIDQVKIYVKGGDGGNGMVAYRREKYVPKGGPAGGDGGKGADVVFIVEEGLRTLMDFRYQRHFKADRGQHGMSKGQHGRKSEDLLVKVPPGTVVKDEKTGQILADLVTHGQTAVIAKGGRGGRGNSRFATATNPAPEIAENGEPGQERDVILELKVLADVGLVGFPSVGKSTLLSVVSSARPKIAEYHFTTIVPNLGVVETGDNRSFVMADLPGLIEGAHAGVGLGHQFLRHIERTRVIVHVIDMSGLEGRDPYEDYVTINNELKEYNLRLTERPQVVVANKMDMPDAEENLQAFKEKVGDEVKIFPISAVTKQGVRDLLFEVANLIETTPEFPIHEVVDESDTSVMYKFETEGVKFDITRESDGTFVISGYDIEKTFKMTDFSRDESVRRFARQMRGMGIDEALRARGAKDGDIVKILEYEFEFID

Der = Der (Bacillus anthracis, UniProt Q81SW9); conditions: labelled compound ([5′-α-32P]); 10 mM Tris pH 7.5, 100 mM NaCl, 5 mM MgCl2, room temperature
Der, sequence (Q81SW9 whole entry, looked up): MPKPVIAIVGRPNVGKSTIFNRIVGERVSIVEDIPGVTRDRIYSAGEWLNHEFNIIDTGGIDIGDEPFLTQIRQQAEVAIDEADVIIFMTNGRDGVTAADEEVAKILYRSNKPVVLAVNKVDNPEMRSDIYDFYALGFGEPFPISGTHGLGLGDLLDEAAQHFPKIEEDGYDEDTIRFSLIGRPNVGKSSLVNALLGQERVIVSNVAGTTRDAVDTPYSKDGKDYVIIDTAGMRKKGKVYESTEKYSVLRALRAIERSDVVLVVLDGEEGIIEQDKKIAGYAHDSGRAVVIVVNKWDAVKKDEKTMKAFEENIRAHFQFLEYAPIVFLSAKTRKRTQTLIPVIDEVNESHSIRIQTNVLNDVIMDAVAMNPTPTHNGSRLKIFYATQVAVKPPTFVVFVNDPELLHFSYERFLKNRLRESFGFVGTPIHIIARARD

[1] = target: T2, translation elongation factor G (EF-G) (Bacillus anthracis, UniProt Q81VT3); experiment: biochemical
T2 construct: gene fusA
T2 sequence (Q81VT3 whole entry, looked up): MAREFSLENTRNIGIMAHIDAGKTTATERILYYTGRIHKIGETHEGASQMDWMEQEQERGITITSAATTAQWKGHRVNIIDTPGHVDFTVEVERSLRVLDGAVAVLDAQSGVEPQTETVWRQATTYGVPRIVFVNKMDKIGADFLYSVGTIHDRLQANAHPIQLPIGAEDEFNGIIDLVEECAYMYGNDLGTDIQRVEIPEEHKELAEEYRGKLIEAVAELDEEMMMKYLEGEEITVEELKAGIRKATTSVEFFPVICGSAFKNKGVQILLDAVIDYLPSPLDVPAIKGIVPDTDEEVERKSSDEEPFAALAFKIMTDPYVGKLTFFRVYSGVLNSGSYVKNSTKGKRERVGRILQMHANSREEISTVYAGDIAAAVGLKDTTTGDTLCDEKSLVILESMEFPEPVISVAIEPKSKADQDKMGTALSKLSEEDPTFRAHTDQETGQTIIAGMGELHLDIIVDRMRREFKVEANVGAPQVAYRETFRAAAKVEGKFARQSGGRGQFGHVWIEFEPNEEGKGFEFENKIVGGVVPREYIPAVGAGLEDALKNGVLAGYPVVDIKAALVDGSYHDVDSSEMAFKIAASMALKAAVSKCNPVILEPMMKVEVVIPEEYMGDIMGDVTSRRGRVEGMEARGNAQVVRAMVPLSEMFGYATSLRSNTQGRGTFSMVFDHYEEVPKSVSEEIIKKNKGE

purified protein [2] = substrate: Nc1nc2c(ncn2[C@@H]2O[C@H](COP(=O)(O)OP(=O)(O)OP(=O)(O)O)[C@@H](OP(=O)(O)OP(=O)(O)O)[C@H]2O)c(=O)[nH]1; experiment: purified protein; conditions: 100 nM enzyme, 40 mM Tris-HCl pH 7.5, 100 mM NaCl, 10 mM MgCl2, 37 °C, cooperative, fitted with Hill equation
purified protein [3] = substrate: Nc1nc2c(ncn2[C@@H]2O[C@H](COP(=O)(O)OP(=O)(O)O)[C@@H](OP(=O)(O)OP(=O)(O)O)[C@H]2O)c(=O)[nH]1; experiment: purified protein; conditions: 100 nM enzyme, 40 mM Tris-HCl pH 7.5, 100 mM NaCl, 10 mM MgCl2, 37 °C, Hill n fixed to 1

T1 sequence (O54408 whole entry): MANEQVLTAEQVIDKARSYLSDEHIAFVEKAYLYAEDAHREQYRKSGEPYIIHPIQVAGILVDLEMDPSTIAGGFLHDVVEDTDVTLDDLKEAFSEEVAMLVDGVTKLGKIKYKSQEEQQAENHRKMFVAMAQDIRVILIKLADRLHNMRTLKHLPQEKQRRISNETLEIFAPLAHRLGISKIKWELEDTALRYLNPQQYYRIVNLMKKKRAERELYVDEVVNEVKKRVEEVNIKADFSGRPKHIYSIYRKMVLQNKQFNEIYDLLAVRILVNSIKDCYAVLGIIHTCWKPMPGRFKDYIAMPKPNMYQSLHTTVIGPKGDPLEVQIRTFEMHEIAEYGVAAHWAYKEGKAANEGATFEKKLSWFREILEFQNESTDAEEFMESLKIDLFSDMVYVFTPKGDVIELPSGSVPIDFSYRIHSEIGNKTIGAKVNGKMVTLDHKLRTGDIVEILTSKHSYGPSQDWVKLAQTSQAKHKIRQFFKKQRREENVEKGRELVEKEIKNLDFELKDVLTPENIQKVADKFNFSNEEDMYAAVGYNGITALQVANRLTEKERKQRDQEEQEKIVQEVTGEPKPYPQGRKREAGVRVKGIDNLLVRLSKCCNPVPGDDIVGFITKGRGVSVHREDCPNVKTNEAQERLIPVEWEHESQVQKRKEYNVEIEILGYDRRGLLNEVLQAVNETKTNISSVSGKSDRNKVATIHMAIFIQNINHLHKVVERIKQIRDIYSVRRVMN
Gmk, sequence (Q81WG7 whole entry, looked up): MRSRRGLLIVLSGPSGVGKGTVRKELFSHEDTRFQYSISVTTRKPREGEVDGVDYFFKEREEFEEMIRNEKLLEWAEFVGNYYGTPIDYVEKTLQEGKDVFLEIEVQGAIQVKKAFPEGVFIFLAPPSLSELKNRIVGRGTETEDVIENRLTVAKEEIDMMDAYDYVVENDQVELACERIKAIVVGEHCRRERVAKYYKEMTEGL
Hpt1, sequence (A0A6L7HDS1 1-180): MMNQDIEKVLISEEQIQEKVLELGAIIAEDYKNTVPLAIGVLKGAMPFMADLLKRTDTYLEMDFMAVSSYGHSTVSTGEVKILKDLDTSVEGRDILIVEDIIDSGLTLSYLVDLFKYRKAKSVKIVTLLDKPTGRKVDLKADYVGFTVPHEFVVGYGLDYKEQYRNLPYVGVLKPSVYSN

For `Nc1nc2c(ncn2[C@@H]2O[C@H](COP(=O)(O)O)[C@@H](OP(=O)(O)OP(=O)(O)O)[C@H]2O)c(=O)[nH]1` [pGpp, guanosine-5′-monophosphate-3′-diphosphate], the “DRaCALA, 1 μM purified protein” value (Gmk) was “confirmed strong pGpp binding to guanosine nucleotide synthesis proteins (Hpt1, Gmk, and Xpt)”, the “DRaCALA, 1 μM purified protein” value (Hpt1) was “confirmed strong pGpp binding to guanosine nucleotide synthesis proteins (Hpt1, Gmk, and Xpt)” and the “32P TLC hydrolysis time course” value (Rel (RelA)) was “pGpp was hydrolyzed more rapidly than (p)ppGpp”. For the same molecule, the “DRaCALA, 1 μM purified protein” value (Xpt) was “confirmed strong pGpp binding to guanosine nucleotide synthesis proteins (Hpt1, Gmk, and Xpt)”.

With `Nc1nc2c(ncn2[C@@H]2O[C@H](COP(=O)(O)OP(=O)(O)O)[C@@H](OP(=O)(O)OP(=O)(O)O)[C@H]2O)c(=O)[nH]1` [ppGpp] the Kd (Obg) was 6 ± 2 µM, the “DRaCALA, 1 μM purified protein” value (Der) was “GTPases involved in ribosome biogenesis (HflX, Obg, Der) bind ppGpp but not pGpp” and the Kd [1] was 60 ± 8 µM. For the same molecule, the “32P TLC hydrolysis time course” value (Rel (RelA)) was “all three nucleotides can be hydrolyzed efficiently by Rel”.

In the case of `Nc1nc2c(ncn2[C@@H]2O[C@H](COP(=O)(O)OP(=O)(O)OP(=O)(O)O)[C@@H](OP(=O)(O)OP(=O)(O)O)[C@H]2O)c(=O)[nH]1` [pppGpp], the Kd (Obg) is reported as 48 ± 7 µM and the Kd [1] is reported as 296 ± 50 µM.

B1: NahA (YvcI) (Bacillus subtilis subsp. subtilis str. 168) (protein)
chain: MTYLQRVTNCVLQTDDKVLLLQKPRRGWWVAPGGKMESGESVRDSVIREYREETGIYIINPQLKGVFTFIIKDGDHIVSEWMMFTFVADSYTGQNVSESEEGKLQWHDVNDIQNLPMAPGDGHILDFMMKGQGLLHGTFTYTPEFELLSYRLDPQHIK
B1 was tested, and the K0.5 (purified protein [2]) was 177.4 ± 0.4 µM, the kcat (purified protein [2]) was 10 ± 0.5 s⁻¹ and the Km (purified protein [3]) was 7.5 ± 2.3 µM. It also gave a kcat (purified protein [3]) of 1.22 ± 0.17 s⁻¹.
